For 26 substances, 3 h FOB score results are on record in the OligoGym collection.

In this data set the target is UBE3A-ATS. As to the kind of experiment: mouse, dose not given. The conditions noted are these: ASO.

HELM strings list units from the 5' end as sugar, base in round brackets, then linkage (d deoxyribose, r ribose, m 2'-O-methyl, p phosphodiester). Strings are as the collection lists them; they lack the last nucleoside at the 3' end of the tested compound. [moe] = 2'-O-(2-methoxyethyl) (MOE); [sp] = phosphorothioate linkage; [m5C] = 5-methylcytosine

In turn, “RNA1{[moe](A)[sp].[moe]([m5C])p.[moe](T)p.[moe]([m5C])p.[moe](A)p.d(T)[sp].d([m5C])[sp].d(A)[sp].d(T)[sp].d(G)[sp].d(A)[sp].d(T)[sp].d([m5C])[sp].d(T)[sp].d(T)[sp].[moe](G)p.[moe](G)p.[moe](T)[sp].[moe](A)}$$$$ (last 3' nucleoside missing)” returned a 3 h FOB score of 3 score 0-7. The figure for “RNA1{[moe]([m5C])[sp].[moe](A)p.[moe](T)p.[moe](T)p.[moe](G)p.d(G)[sp].d([m5C])[sp].d(T)[sp].d(T)[sp].d([m5C])[sp].d(A)[sp].d(T)[sp].d(A)[sp].d(T)[sp].d(T)[sp].[moe](T)p.[moe]([m5C])p.[moe](T)[sp].[moe]([m5C])}$$$$ (last 3' nucleoside missing)” is 0 score 0-7; for “RNA1{[moe](T)[sp].[moe]([m5C])p.[moe](A)p.[moe](A)p.[moe]([m5C])p.d(T)[sp].d(A)[sp].d(T)[sp].d(T)[sp].d(T)[sp].d([m5C])[sp].d(T)[sp].d(A)[sp].d(T)[sp].d([m5C])[sp].[moe](A)p.[moe](A)p.[moe](G)[sp].[moe](G)}$$$$ (last 3' nucleoside missing)” it is 0 score 0-7; for “RNA1{[moe](G)[sp].[moe](T)p.[moe]([m5C])p.[moe](A)p.[moe](G)p.d(A)[sp].d(T)[sp].d(T)[sp].d([m5C])[sp].d([m5C])[sp].d(T)[sp].d(A)[sp].d(A)[sp].d(A)[sp].d(T)[sp].[moe](A)p.[moe]([m5C])p.[moe](G)[sp].[moe]([m5C])}$$$$ (last 3' nucleoside missing)” it is 0 score 0-7. For the substance “RNA1{[moe](T)[sp].[moe](T)p.[moe](T)p.[moe](G)p.[moe](T)p.d(A)[sp].d(G)[sp].d([m5C])[sp].d(T)[sp].d(A)[sp].d(T)[sp].d(A)[sp].d(G)[sp].d(G)[sp].d(T)[sp].[moe](G)p.[moe](T)p.[moe]([m5C])[sp].[moe](A)}$$$$ (last 3' nucleoside missing)”, the 3 h FOB score amounted to 2.3 score 0-7. In turn, “RNA1{[moe](T)[sp].[moe](G)p.[moe](G)p.[moe](T)[sp].d([m5C])[sp].d(A)[sp].d(T)[sp].d([m5C])[sp].d(T)[sp].d([m5C])[sp].d(G)[sp].d(G)[sp].[moe](G)p.[moe](T)p.[moe](A)p.[moe](T)[sp].[moe](A)}$$$$ (last 3' nucleoside missing)” registered a 3 h FOB score of 4.7 score 0-7.

With “RNA1{[moe](T)[sp].[moe](T)p.[moe](G)p.[moe](G)[sp].d(T)[sp].d([m5C])[sp].d(A)[sp].d(T)[sp].d([m5C])[sp].d(T)[sp].d([m5C])[sp].d(G)[sp].[moe](G)p.[moe](G)p.[moe](T)p.[moe](A)[sp].[moe](T)}$$$$ (last 3' nucleoside missing)”, the 3 h FOB score was 2.3 score 0-7. Then “RNA1{[moe](A)[sp].[moe](T)p.[moe](G)p.[moe](T)p.d(G)[sp].d([m5C])[sp].d(A)[sp].d(T)[sp].d(A)[sp].d([m5C])[sp].d([m5C])[sp].d([m5C])[sp].d(A)[sp].d(G)[sp].[moe](G)p.[moe](G)p.[moe](T)p.[moe](A)[sp].[moe](G)}$$$$ (last 3' nucleoside missing)”, with 1.8 score 0-7; and “RNA1{[moe](T)[sp].[moe](G)p.[moe]([m5C])p.[moe](A)p.[moe](T)[sp].d(A)[sp].d([m5C])[sp].d([m5C])[sp].d([m5C])[sp].d(A)[sp].d(G)[sp].d(G)[sp].d(G)[sp].[moe](T)p.[moe](A)p.[moe](G)[sp].[moe](G)}$$$$ (last 3' nucleoside missing)”, with 1 score 0-7. Substance “RNA1{[moe](T)[sp].[moe](A)p.[moe](G)p.[moe](G)p.[moe](G)p.d(T)[sp].d(G)[sp].d(G)[sp].d(T)[sp].d(T)[sp].d(G)[sp].d(G)[sp].d(T)[sp].d(T)[sp].d([m5C])[sp].[moe](A)p.[moe](A)p.[moe](A)[sp].[moe](A)}$$$$ (last 3' nucleoside missing)” registered a 3 h FOB score of 5.7 score 0-7.

“RNA1{[moe](T)[sp].[moe](T)p.[moe]([m5C])p.[moe](A)p.d([m5C])[sp].d([m5C])[sp].d(A)[sp].d(T)[sp].d(T)[sp].d(T)[sp].d(T)[sp].d(G)[sp].d(A)[sp].d([m5C])[sp].[moe]([m5C])p.[moe](T)p.[moe](T)p.[moe]([m5C])[sp].[moe](T)}$$$$ (last 3' nucleoside missing)” returned a 3 h FOB score of 1 score 0-7.

In turn, “RNA1{[moe]([m5C])[sp].[moe](A)p.[moe](A)p.[moe](G)p.[moe](A)p.d([m5C])[sp].d([m5C])[sp].d(T)[sp].d(A)[sp].d(T)[sp].d(A)[sp].d(G)[sp].d(G)[sp].d(A)[sp].d([m5C])[sp].[moe]([m5C])p.[moe](T)p.[moe]([m5C])[sp].[moe](A)}$$$$ (last 3' nucleoside missing)” had a 3 h FOB score of 3 score 0-7. The figure for “RNA1{[moe]([m5C])[sp].[moe](T)p.[moe](G)p.[moe](T)p.[moe](A)p.d(A)[sp].d(G)[sp].d(T)[sp].d(A)[sp].d(T)[sp].d(A)[sp].d(G)[sp].d(A)[sp].d(T)[sp].d(G)[sp].[moe]([m5C])p.[moe]([m5C])p.[moe](T)[sp].[moe]([m5C])}$$$$ (last 3' nucleoside missing)” is 3.2 score 0-7; for “RNA1{[moe](T)[sp].[moe](G)p.[moe](A)p.[moe](T)p.[moe]([m5C])[sp].d(A)[sp].d([m5C])[sp].d(A)[sp].d(T)[sp].d(T)[sp].d(A)[sp].d([m5C])[sp].d([m5C])[sp].[moe]([m5C])p.[moe](A)p.[moe](T)[sp].[moe]([m5C])}$$$$ (last 3' nucleoside missing)” it is 1 score 0-7. Then “RNA1{[moe](T)[sp].[moe]([m5C])p.[moe](T)p.[moe](G)p.d([m5C])[sp].d(T)[sp].d([m5C])[sp].d(A)[sp].d(G)[sp].d(T)[sp].d(T)[sp].d(A)[sp].d(G)[sp].d(G)[sp].[moe](T)p.[moe](T)p.[moe](A)p.[moe](G)[sp].[moe](T)}$$$$ (last 3' nucleoside missing)”, with 4 score 0-7.

In turn, “RNA1{[moe](G)[sp].[moe](T)p.[moe](G)p.[moe](T)p.[moe](G)p.d(T)[sp].d(T)[sp].d(T)[sp].d(T)[sp].d(T)[sp].d([m5C])[sp].d([m5C])[sp].d(A)[sp].d(T)[sp].d(T)[sp].[moe](T)p.[moe](T)p.[moe](T)[sp].[moe]([m5C])}$$$$ (last 3' nucleoside missing)” had a 3 h FOB score of 0 score 0-7. In the case of “RNA1{[moe](T)[sp].[moe](T)p.[moe](T)p.[moe](G)p.[moe](G)p.d([m5C])[sp].d(T)[sp].d(T)[sp].d(T)[sp].d(A)[sp].d(T)[sp].d(A)[sp].d([m5C])[sp].d(T)[sp].d(T)[sp].[moe](T)p.[moe](A)p.[moe]([m5C])[sp].[moe]([m5C])}$$$$ (last 3' nucleoside missing)”, the 3 h FOB score was 0 score 0-7. Then “RNA1{[moe](G)[sp].[moe](T)p.[moe](G)p.[moe]([m5C])p.[moe](A)p.[moe](T)p.d(A)[sp].d([m5C])[sp].d([m5C])[sp].d([m5C])[sp].d(A)[sp].d(G)[sp].d(G)[sp].d(G)[sp].d(T)[sp].d(A)[sp].[moe](G)p.[moe](G)[sp].[moe](A)}$$$$ (last 3' nucleoside missing)”, with 1 score 0-7; and “RNA1{[moe](T)[sp].[moe]([m5C])p.[moe](T)p.[moe]([m5C])p.[moe](G)p.d(G)[sp].d(G)[sp].d(T)[sp].d(A)[sp].d(T)[sp].d(A)[sp].d(T)[sp].d(A)[sp].d(A)[sp].d(A)[sp].[moe](T)p.[moe](T)p.[moe](A)[sp].[moe](A)}$$$$ (last 3' nucleoside missing)”, with 0 score 0-7. The figure for “RNA1{[moe](G)[sp].[moe](T)p.[moe](T)p.[moe](T)p.[moe](A)p.d(T)[sp].d(A)[sp].d(G)[sp].d(G)[sp].d(G)[sp].d(T)[sp].d(G)[sp].d(G)[sp].d(T)[sp].d(T)[sp].[moe](G)p.[moe](G)p.[moe](T)[sp].[moe](T)}$$$$ (last 3' nucleoside missing)” is 7 score 0-7; for “RNA1{[moe](G)[sp].[moe](T)p.[moe](T)p.[moe](T)p.[moe](A)p.d(G)[sp].d(G)[sp].d(T)[sp].d([m5C])[sp].d(A)[sp].d(A)[sp].d([m5C])[sp].d([m5C])[sp].d(A)[sp].d(A)[sp].[moe](T)p.[moe](T)p.[moe](T)[sp].[moe](G)}$$$$ (last 3' nucleoside missing)” it is 1 score 0-7; for “RNA1{[moe]([m5C])[sp].[moe](A)p.[moe](G)p.[moe](G)p.[moe](T)p.d(G)[sp].d(T)[sp].d([m5C])[sp].d(T)[sp].d(T)[sp].d(A)[sp].d(T)[sp].d(A)[sp].d(T)[sp].d([m5C])[sp].[moe](T)p.[moe](A)p.[moe](T)[sp].[moe](G)}$$$$ (last 3' nucleoside missing)” it is 0 score 0-7.

Regarding “RNA1{[moe](G)[sp].[moe](T)p.[moe](G)p.[moe](A)[sp].d(G)[sp].d([m5C])[sp].d(T)[sp].d(A)[sp].d(T)[sp].d([m5C])[sp].d(T)[sp].d(G)[sp].[moe](T)p.[moe](A)p.[moe]([m5C])p.[moe](A)[sp].[moe](A)}$$$$ (last 3' nucleoside missing)”, the 3 h FOB score stood at 1.7 score 0-7. The figure for “RNA1{[moe](G)[sp].[moe](T)p.[moe](G)p.[moe](T)p.d(T)[sp].d(T)[sp].d(T)[sp].d(T)[sp].d([m5C])[sp].d([m5C])[sp].d(A)[sp].d(T)[sp].d(T)[sp].d(T)[sp].[moe](T)p.[moe](T)p.[moe]([m5C])p.[moe](T)[sp].[moe]([m5C])}$$$$ (last 3' nucleoside missing)” is 0 score 0-7. Then “RNA1{[moe](G)[sp].[moe](G)p.[moe](G)p.[moe](T)p.[moe](A)p.d([m5C])[sp].d(T)[sp].d(A)[sp].d(T)[sp].d(G)[sp].d(T)[sp].d(T)[sp].d(G)[sp].d(T)[sp].d([m5C])[sp].[moe](A)p.[moe]([m5C])p.[moe](T)[sp].[moe](G)}$$$$ (last 3' nucleoside missing)”, with 6 score 0-7; and “RNA1{[moe](G)[sp].[moe]([m5C])p.[moe](A)p.[moe](T)p.[moe](A)p.d([m5C])[sp].d([m5C])[sp].d([m5C])[sp].d(A)[sp].d(G)[sp].d(G)[sp].d(G)[sp].d(T)[sp].d(A)[sp].d(G)[sp].[moe](G)p.[moe](A)p.[moe](T)[sp].[moe](T)}$$$$ (last 3' nucleoside missing)”, with 3 score 0-7.
